# Measured values as given in ChEMBL document CHEMBL5506051, “Structure-Activity Relationships toward the Identification of a High-Potency Selective Human Toll-like Receptor-7 Agonist” (J Med Chem, 2024).
# How the values were obtained:
# Toll-like receptor 7 = molecular target: T1, Toll-like receptor 7 (Homo sapiens, UniProt Q9NYK1); test: Agonist activity at human TLR7 in HEK-Blue hTLR7 cells assessed as increase in inducible SEAP level incubated for overnight by QUANTI-Blue reagent based assay; type: cell-based
# T1 sequence (Q9NYK1 whole entry): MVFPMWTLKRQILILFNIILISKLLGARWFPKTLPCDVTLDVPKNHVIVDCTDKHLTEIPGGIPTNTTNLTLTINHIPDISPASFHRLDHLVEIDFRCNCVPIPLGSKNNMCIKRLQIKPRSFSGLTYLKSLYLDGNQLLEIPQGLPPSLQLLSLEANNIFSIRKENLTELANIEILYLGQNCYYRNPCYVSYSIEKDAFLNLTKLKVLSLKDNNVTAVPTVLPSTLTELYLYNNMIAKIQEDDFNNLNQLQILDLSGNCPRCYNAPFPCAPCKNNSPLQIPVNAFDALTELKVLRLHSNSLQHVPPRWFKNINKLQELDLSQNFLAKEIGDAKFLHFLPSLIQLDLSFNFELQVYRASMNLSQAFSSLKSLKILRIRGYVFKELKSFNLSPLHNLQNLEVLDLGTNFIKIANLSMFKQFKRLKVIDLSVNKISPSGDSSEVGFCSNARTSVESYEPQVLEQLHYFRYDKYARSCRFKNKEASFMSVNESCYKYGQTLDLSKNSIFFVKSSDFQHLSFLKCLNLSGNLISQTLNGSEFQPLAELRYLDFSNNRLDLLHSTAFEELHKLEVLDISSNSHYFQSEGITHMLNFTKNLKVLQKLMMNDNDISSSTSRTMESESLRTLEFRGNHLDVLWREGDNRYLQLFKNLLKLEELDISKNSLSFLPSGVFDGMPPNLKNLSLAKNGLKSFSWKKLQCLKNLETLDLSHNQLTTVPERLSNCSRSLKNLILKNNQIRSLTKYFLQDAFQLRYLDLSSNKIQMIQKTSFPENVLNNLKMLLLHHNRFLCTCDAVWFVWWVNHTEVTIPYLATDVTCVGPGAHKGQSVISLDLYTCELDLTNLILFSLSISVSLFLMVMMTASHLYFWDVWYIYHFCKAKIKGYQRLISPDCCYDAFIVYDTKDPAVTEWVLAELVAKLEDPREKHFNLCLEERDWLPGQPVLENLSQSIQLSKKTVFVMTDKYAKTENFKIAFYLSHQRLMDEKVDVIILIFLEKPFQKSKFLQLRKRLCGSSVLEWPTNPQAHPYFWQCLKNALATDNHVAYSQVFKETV
# Toll-like receptor 8 = molecular target: T2, Toll-like receptor 8 (Homo sapiens, UniProt Q9NR97); test: Agonist activity at human TLR8 in HEK-Blue hTLR8 cells assessed as increase in inducible SEAP level incubated for overnight by QUANTI-Blue reagent based assay; type: cell-based
# T2 sequence (Q9NR97 whole entry): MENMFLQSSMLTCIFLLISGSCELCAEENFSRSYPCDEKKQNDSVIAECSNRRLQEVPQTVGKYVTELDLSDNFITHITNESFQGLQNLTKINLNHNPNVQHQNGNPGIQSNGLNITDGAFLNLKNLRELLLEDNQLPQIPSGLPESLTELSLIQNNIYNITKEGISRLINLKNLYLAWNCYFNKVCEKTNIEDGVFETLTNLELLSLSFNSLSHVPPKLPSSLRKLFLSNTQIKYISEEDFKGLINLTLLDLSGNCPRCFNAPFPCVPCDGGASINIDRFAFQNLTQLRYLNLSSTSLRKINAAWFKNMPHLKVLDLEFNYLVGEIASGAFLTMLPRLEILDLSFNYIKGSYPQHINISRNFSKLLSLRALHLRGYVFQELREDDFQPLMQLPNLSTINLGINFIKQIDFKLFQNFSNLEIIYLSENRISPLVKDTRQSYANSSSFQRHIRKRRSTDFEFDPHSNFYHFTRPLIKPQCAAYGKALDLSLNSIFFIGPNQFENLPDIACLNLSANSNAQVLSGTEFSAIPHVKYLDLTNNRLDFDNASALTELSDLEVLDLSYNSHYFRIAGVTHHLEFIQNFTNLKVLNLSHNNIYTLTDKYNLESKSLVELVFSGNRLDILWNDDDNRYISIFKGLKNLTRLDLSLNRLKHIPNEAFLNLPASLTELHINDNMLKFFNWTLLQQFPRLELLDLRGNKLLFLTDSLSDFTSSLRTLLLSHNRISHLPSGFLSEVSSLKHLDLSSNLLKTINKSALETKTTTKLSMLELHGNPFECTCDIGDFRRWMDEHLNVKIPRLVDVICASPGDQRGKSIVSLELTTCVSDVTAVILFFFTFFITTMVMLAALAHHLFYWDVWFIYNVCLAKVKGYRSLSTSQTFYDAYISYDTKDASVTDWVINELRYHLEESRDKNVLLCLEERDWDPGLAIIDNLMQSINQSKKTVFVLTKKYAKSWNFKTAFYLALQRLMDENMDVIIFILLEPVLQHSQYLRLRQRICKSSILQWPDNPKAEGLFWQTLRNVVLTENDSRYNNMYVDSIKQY
# [1] = molecular target: T3, Toll-like receptor 7 (Homo sapiens) (UniProt Q9NYK1); test: Potency index, ratio of BBIQ EC50 to test compound EC50 for agonist activity at human TLR7 in HEK-Blue hTLR7 cells assessed as increase in inducible SEAP level incubated for overnight by QUANTI-Blue reagent based assay; type: cell-based; conditions: filed as agonist
# T3 sequence (whole entry): T1 sequence (Q9NYK1 whole entry)
# Homo sapiens [2] = organism: Homo sapiens; test: Selectivity index, ratio of EC50 for agonist activity at human TLR7 in HEK-Blue hTLR7 cells to EC50 for agonist activity at human TLR8 in HEK-Blue hTLR8 cells; type: cell-based
# [3] = tested on: Panel NCI-60 (60 carcinoma cell lines); test: Cytotoxicity against human Panel NCI-60 (60 carcinoma cell lines) at <=10 uM; type: toxicity, cell-based
# Homo sapiens [4] = organism: Homo sapiens; test: Selectivity ratio of agonist activity at human TLR8 to agonist activity at human TLR7
SMILES,EC50 (Toll-like receptor 7) [µM],EC50 (Toll-like receptor 8) [µM],other results
CCCCc1nc2c(N)nc3ccccc3c2n1Cc1ccc(C(=O)NCC(C)(C)O)cc1,0.31,25.8,–
CCCCc1nc2c(N)nc3ccccc3c2n1Cc1ccc(C(=O)NN)cc1,1.1,–,–
CCCCc1nc2c(N)nc3ccccc3c2n1Cc1ccc(O)cc1,–,125,–
CCCCc1nc2c(N)nc3ccccc3c2n1Cc1ccc(C(N)=O)cc1,0.32,18.2,Ratio EC50 [1]: 3; Ratio EC50 (Homo sapiens [2]): 57
CCCCc1nc2c(N)nc3ccccc3c2n1Cc1ccc(OC)cc1,1.83,–,–
CCCCc1nc2c(N)nc3ccccc3c2n1Cc1ccc(C(=O)NC)cc1,0.2,31.8,Ratio EC50 [1]: 8; Ratio EC50 (Homo sapiens [2]): 159; Activity [3]: Non-Toxic
CCCCCCCCNC(=O)c1ccc(Cn2c(CCCC)nc3c(N)nc4ccccc4c32)cc1,–,–,Activity [3]: Non-Toxic
CCCCOc1nc(N)c2c(n1)N(Cc1cccc(CN3CCCC3)c1)CC(=O)N2,–,–,Selectivity ratio (Homo sapiens [4]): 30
CCCCc1nc2c(N)nc3ccccc3c2n1Cc1ccc(C(=O)NCCO)cc1,–,50.3,–
CC(C)Cn1cnc2c(N)nc3ccccc3c21 [IMIQUIMOD],8.29,–,–
CCCCc1nc2c(N)nc3ccccc3c2n1Cc1ccccc1,0.85,–,–
